Measurements: ChEMBL document CHEMBL1129196, “Studies on the structural feature of S'1 subsite of neprilysin (EC.3.4.24.11): Stereochemical requirement for the enzyme-inhibitor docking process” (Bioorg Med Chem Lett, 1996)
pKi: −log10 of the molar value.

Legend:
Neprilysin = Neprilysin (Homo sapiens, UniProt P08473); assay: Compound was evaluated for inhibition of recombinant human neprilysin(NEP).
[1] = biological target: T1, Angiotensin-converting enzyme (Rattus norvegicus, UniProt P47820); assay: Compound was measured for the inhibition of Angiotensin I converting enzyme
T1 sequence (P47820 whole entry): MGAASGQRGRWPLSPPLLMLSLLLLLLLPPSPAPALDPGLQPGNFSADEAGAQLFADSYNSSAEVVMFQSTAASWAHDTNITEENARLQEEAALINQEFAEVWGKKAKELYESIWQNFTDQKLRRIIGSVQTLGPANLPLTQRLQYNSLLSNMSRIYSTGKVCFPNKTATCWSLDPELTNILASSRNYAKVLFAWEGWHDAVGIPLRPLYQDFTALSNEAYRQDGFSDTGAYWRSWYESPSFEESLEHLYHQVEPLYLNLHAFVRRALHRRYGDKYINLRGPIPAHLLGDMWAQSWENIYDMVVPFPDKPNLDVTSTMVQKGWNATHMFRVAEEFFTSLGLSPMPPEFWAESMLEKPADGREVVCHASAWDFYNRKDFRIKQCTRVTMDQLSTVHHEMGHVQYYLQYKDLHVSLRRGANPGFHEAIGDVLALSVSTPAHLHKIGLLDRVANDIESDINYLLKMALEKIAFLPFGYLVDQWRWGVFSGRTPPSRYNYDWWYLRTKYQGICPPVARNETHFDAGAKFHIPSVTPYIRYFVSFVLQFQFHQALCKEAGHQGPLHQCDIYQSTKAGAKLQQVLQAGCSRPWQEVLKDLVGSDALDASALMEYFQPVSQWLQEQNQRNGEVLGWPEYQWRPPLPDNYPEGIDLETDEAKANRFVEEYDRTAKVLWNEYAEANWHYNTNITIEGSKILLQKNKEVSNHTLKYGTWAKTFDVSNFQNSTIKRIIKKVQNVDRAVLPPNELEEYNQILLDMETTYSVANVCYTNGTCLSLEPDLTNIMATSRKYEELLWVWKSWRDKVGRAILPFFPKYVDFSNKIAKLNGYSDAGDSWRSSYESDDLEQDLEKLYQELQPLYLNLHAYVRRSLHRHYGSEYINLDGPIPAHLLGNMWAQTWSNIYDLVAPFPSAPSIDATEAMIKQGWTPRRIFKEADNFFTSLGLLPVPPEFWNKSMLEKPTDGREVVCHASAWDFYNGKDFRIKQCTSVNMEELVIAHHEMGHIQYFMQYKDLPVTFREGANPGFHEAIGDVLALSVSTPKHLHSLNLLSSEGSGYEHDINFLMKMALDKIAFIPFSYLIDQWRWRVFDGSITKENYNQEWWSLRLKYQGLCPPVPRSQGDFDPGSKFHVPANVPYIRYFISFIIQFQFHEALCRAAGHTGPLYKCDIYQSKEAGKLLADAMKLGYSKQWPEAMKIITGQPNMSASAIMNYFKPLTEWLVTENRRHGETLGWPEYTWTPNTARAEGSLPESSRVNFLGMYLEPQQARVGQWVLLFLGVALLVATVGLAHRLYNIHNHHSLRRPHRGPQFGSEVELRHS

Neprilysin, sequence (P08473 whole entry): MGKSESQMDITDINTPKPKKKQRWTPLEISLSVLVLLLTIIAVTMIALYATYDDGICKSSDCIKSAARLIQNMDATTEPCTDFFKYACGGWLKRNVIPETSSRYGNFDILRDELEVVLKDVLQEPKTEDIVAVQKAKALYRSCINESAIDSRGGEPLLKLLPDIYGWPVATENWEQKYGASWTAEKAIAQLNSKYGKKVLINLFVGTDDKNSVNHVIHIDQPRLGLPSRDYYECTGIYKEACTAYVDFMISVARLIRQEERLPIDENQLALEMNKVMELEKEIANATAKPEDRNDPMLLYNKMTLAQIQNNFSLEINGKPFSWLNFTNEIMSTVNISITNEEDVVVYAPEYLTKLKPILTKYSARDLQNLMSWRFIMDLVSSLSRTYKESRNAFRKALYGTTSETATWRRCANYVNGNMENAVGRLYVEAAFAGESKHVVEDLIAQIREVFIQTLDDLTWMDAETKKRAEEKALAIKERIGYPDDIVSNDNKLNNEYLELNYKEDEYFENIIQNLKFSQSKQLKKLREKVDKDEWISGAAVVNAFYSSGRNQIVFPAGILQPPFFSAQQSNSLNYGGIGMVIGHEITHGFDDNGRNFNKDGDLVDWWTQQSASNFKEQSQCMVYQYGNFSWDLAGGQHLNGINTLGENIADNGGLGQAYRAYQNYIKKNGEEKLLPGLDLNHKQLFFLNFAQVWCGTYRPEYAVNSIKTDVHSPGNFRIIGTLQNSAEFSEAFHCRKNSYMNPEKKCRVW

pKi (Neprilysin) | pKi [1] | SMILES
< 7.00 | – | O=C(O)CNC(=O)C(CS)(Cc1ccccc1)Cc1ccccc1
6.39 | – | O=C(O)CNC(=O)/C(=C/c1ccccc1)CS
8.31 | 6.42 | O=C(O)CNC(=O)/C(=C\c1ccccc1)CS
6.79 | – | O=C(O)CNC(=O)C1(CS)Cc2ccccc2C1
